Columns and labels:
[1] = test system: SCNT embryos; assay: Production of pseudo-pronuclei of SCNT embryos after DEM treatment; assay type: cell-based, pig; conditions: 0.4 μg/ml DEM for 4 hours
Procedure: (§1) After the activation stimulation, the activated embryos were incubated in NCSU-23 culture medium containing 0.4 μg/ml demecolcine (DEM) (Sigma-Aldrich Corp., USA) for 4 hours.
The oocytes treated with DEM of Exemplary Embodiment 3 or the oocytes of Comparative Example 1 were cultured in vitro for 7 hours, activated, fixed for 11 hours, and stained to estimate the number of pseudo-pronuclei and their production rate. The fixation of the oocytes was performed using a whole-mount method. 10 to 20 oocytes were placed on a slide glass and covered with a cover glass. The oocytes were fixed in a fixative (25% acetic acid in ethanol) at 33° C. for 10 to 20 minutes. The fixed oocytes were stained with 1% orcein (in 45% acetic acid solution) and then the pseudo pronuclei were observed by a phase microscope.

[2] = test system: SCNT embryos; assay: In vitro development of SCNT embryos according to time of DEM treatment; assay type: cell-based, pig
Procedure: (§2) The SCNT embryos of Exemplary Embodiment 3 and Comparative Example 1 were cultured in vitro with an atmosphere of 5% CO2, 5% O2 and 90% N2 gases. On the second and sixth days of the in vitro culture, their division rates and development to blastocysts were monitored. Further, the blastocysts were stained with bis-benzimide to estimate the number of cells under a fluorescent microscope.
Change in in vitro development of SCNT embryos depending on the time of DEM treatment was surveyed. The SCNT embryos activated according to Exemplary Embodiment <3-4> were incubated in NCSU-23 culture medium containing 0.4 μg/ml DEM for 2, 4 and 6 hours, respectively, and cultured in vitro by the same method as described in Experimental Example 1, followed by observation of their development to blastocysts.

[3] = test system: recipient pigs transferred with SCNT embryos; assay: Delivery rate and number of pigs born alive after in vivo transfer of DEM-treated SCNT embryos; parameters: species or system pig
Description: For in vivo transfer of the NT embryos, a naturally-estrous gilt was used as a recipient animal. On the day of the production of the NT embryos, a standing estrus pig was subjected to inhalation anesthesia, and using a common method, cut open to expose the ovaries and oviducts. After confirming the presence of follicle, ovulation and corpus luteum in the ovary, 90 to 160 SCNT embryos activated and treated with DEM were transferred into the oviduct by fimbriae. The recipient pig into which the NT embryos were transferred was monitored to confirm whether or not it was estrus, and a pregnancy test was taken every two weeks, 4 weeks after transfer of the fertilized embryos. When the recipient pig gave birth to live, SCNT embryo-derived offspring, its period of pregnancy, the number of live offspring, their weight, and morphological abnormalities found in any of the live offspring were monitored and recorded.
The effect of DEM treatment to the SCNT embryos on delivery rate and the number of pigs born alive was surveyed. Each group of SCNT embryos (107-160/a recipient pig), wherein one was treated with DEM according to Exemplary Embodiment 4 and the other (102-165/a recipient pig) was not treated with DEM, was transferred into 8 to 10 recipient pigs monitored to see whether or not they were estrus. Starting 4 weeks after transfer of the fertilized embryos, they were given pregnancy tests every 2 weeks. When they gave birth to live, SCNT embryo-derived offspring, the period of pregnancy, the number of live offspring, their weight and any morphological abnormalities were monitored and recorded. Further, the number of recipient pigs having live offspring and the number of pigs born alive in a litter were surveyed.

[4] = test system: SCNT porcine embryos; assay: In vitro development of SCNT porcine embryos after DEM treatment; assay type: cell-based, pig
Procedure: as §1
With the same method as in Exemplary Embodiment <3-4>, the fused NT embryos were electrically activated, but not treated with DEM.
After activation stimulation, the SCNT embryos were cultured in in vitro culture medium for 6 days in an atmosphere of 5% CO2, 5% O2 and 90% N2 gas.
as §2

[5] = 0.4 μg/ml DEM for 2 hrs, of N=141
[6] = 0.4 μg/ml DEM for 4 hrs, of N=142
[7] = 0.4 μg/ml DEM for 6 hrs, of N=142
[8] = recipient pig transferred with SCNT embryos treated with DEM

Which results are given for `CN[C@H]1CCc2cc(OC)c(OC)c(OC)c2-c2ccc(OC)c(=O)cc21` [DEM, demecolcine]?
1PPN (one pseudo pronucleus) (%) [1]: 83.7%; Multi-PPN (2 or more pseudo pronuclei) (%) [1]: 9.3%; Others(%) [1]: 7.0%; 1PPN (one pseudo pronucleus), number of embryos ([1]; of N=43): 36; Multi-PPN (2 or more pseudo pronuclei), number of embryos ([1]; of N=43): 4; Others, number of embryos ([1]; of N=43): 3; change in in vitro development of the SCNT embryos according to the time of DEM treatment ([2]; 0.4 μg/ml DEM for 2, 4 and 6 hours): wasn't a significant change; Blastocysts (%) ([2]; 0.4 μg/ml DEM for 2 hrs): 24.8%; No. of Cells/Blastocysts ([2]; 0.4 μg/ml DEM for 2 hrs): 35.3 ± 2.1; ≧2 cells (%) ([2]; 0.4 μg/ml DEM for 2 hrs): 84.4%; Blastocysts, number of embryos [2, 5]: 35; ≧2 cells, number of embryos [2, 5]: 119; Blastocysts (%) ([2]; 0.4 μg/ml DEM for 4 hrs): 29.6%; No. of Cells/Blastocysts ([2]; 0.4 μg/ml DEM for 4 hrs): 35.2 ± 1.8; ≧2 cells (%) ([2]; 0.4 μg/ml DEM for 4 hrs): 80.3%; Blastocysts, number of embryos [2, 6]: 42; ≧2 cells, number of embryos [2, 6]: 114; Blastocysts (%) ([2]; 0.4 μg/ml DEM for 6 hrs): 25.4%; No. of Cells/Blastocysts ([2]; 0.4 μg/ml DEM for 6 hrs): 30.8 ± 2.7; ≧2 cells (%) ([2]; 0.4 μg/ml DEM for 6 hrs): 78.2%; Blastocysts, number of embryos [2, 7]: 36; ≧2 cells, number of embryos [2, 7]: 111; in vitro development of SCNT embryos, comparison of treatment times ([2]; 4-hour incubation period with 0.4 μg/ml DEM): highest level of growth; No. of Pigs/Litter ([3]; SCNT embryos treated with DEM): 3.0; No. of Pigs Born Alive ([3]; SCNT embryos treated with DEM, 8 recipient pigs): 12; Recipient Pigs Delivered(%) ([3]; SCNT embryos treated with DEM, 107-160 per recipient pig): 50.0%; No. of Recipient Pigs Delivered ([3]; SCNT embryos treated with DEM, 107-160 per recipient pig, of N=8 recipients): 4; delivery rate versus Comparative Example 1 (no DEM) [3, 8]: significantly increased; number of pigs born alive in a litter versus Comparative Example 1 (no DEM) [3, 8]: significantly increased; ≧2-Cell(%) ([4]; 0.4 μg/ml DEM for 4 hours after activation, second day of in vitro culture): 76.8%; ≧2-Cell, number of embryos ([4]; 0.4 μg/ml DEM for 4 hours after activation, second day of in vitro culture, of N=187): 144; Blastocyst(%) ([4]; 0.4 μg/ml DEM for 4 hours after activation, sixth day of in vitro culture): 27.3%; Blastocyst, number of embryos ([4]; 0.4 μg/ml DEM for 4 hours after activation, sixth day of in vitro culture, of N=187): 51; No. of Cells/Blastocysts ([4]; 0.4 μg/ml DEM for 4 hours, bis-benzimide staining): 39.5; development to blastocysts versus Comparative Example 1 (not treated with DEM) ([4]; embryos treated with DEM, then cultured in vitro): significantly improved

— patent publication US7601884B2, “Method of producing cloned animals by demecolcine treatment” (KNU - Industry Cooperation Foundation, priority 2007, dated 2009)
